Experimental data from US20190105337A1, “METHODS OF TREATING BACTERIAL INFECTIONS” (priority 2015, published 2019).
“And” between values parts separate entries of the source, which are not always exact repeats. Equal values may be shown once.

Key:
[1] = Example 5: expected Compound I free drug 24 h AUC according to dosage regimen, by individual subject (Table B); set-up: species or system human; settings: for Expected Compound I free drug 24 h AUC: individual subjects
Excerpt: Table B provides a summary of the analysis of different Compound I dosing regimens by individual subjects enrolled the study.

clinical = settings: both, human, in vivo
Method: A total of twenty-five (n=25) male and female subjects who met the study entry criteria and completed all phases of the pharmacokinetic study were included in this pharmacokinetic analysis. […] Blood samples were collected to measure drug concentrations in plasma prior to (time 0), and at 1.5, 2.95, 3.083, 3.25, 3.5, 4, 6, and 8 hours after the start of a 3-hour intravenous infusion of the third combination dose.
Urea has been commonly used as an endogenous marker to estimate the apparent volume of ELF. Blood samples to determine plasma urea concentrations were obtained just prior to scheduled bronchoscopy. Aliquots of BAL were obtained to determine urea concentrations in BAL and cell count with differential. The standardized bronchoscopy with BAL procedure for the collection of intrapulmonary samples has been previously described in the references listed below.
(Reports MC14B-0013, MC14B-0015, MC14I-011, and MC14I-0012). The urea concentrations in plasma and BAL were performed with a microplate-based method with an 0-phthalaldehyde chromogenic solution at MicroConstants, Inc., San Diego, Calif.
The calculations of ELF volume and drug concentrations in ELF and AM were performed with BAL supernatant and pulmonary (alveolar) cells (“cell pellet”) from aspirates recovered from the 2nd, 3rd, and 4th instillations (BAL2). The concentration of drug (ABXELF) in the epithelial lining fluid (ELF) was determined as follows:
[…]
VELF is derived from the following:
where UreaBAL is the concentration of urea in BAL fluid and UreaP is the concentration of urea in plasma.
The concentration of drug (ABXAM) in the alveolar cells (AC) was determined as follows:
Differential cell count was performed to determine the number of macrophages present. A mean macrophage cell volume of 2.42 μl/106 cells was used in the calculations for volume of alveolar cells in the pellet suspension.
The concentration ratios of ELF and AM to the simultaneous plasma concentrations were calculated for each subject and summarized for each group at each sampling time. […] The 8-hour sampling time was also used as a value at time zero for determining the area term of plasma, ELF, and AM. The AUC0-8 for each matrix was determined with the linear trapezoidal method. The ratio of AUC0-8 of ELF to plasma and AM to plasma were calculated.

[2] = 2 g q8h, Normal creatinine clearance
[3] = AM concentration at time of bronchoscopy and BAL
[4] = ELF concentration at time of bronchoscopy and BAL
[5] = Plasma concentration at time of bronchoscopy and BAL
[6] = Ratio AM to Plasma (total plasma concentration)
[7] = Ratio ELF to Plasma (total plasma concentration)

Expected Compound I free drug 24 h AUC, Mean [1, 2]: 358 µg·h/mL | Expected Compound I free drug 24 h AUC, Range [1, 2]: 284 to 470 µg·h/mL | concentration at 1.5 h (clinical; [3]): 2710 ± 1440 ng/mL | concentration at 3.25 h (clinical; [3]): 8790 ± 9430 ng/mL | concentration at 4 h (clinical; [3]): 5510 ± 3150 ng/mL | concentration at 6 h (clinical; [3]): 27600 ± 39600 ng/mL | concentration at 8 h (clinical; [3]): 4400 ± 4100 ng/mL | AUC(0-t) (clinical; AUC0-8 based on mean ELF concentrations): 105 µg·h/mL | AUC(0-t) (clinical; AUC0-8 based on median ELF concentrations): 96.7 µg·h/mL | concentration at 1.5 h (clinical; [4]): 18600 ± 3800 ng/mL | concentration at 3.25 h (clinical; [4]): 26100 ± 1100 ng/mL | concentration at 4 h (clinical; [4]): 15700 ± 3400 ng/mL | concentration at 6 h (clinical; [4]): 8030 ± 5800 ng/mL | concentration at 8 h (clinical; [4]): 2610 ± 1350 ng/mL | concentration at 1.5 h (clinical; [5]): 42100 ± 5000 ng/mL | concentration at 3.25 h (clinical; [5]): 51100 ± 6800 ng/mL | concentration at 4 h (clinical; [5]): 28200 ± 5300 ng/mL | concentration at 6 h (clinical; [5]): 10800 ± 2800 ng/mL | concentration at 8 h (clinical; [5]): 2740 ± 1120 ng/mL | Kp at 1.5 h (clinical; [6]): 0.062 ± 0.029 | Kp at 3.25 h (clinical; [6]): 0.165 ± 0.163 | Kp at 4 h (clinical; [6]): 0.191 ± 0.101 | Kp at 6 h (clinical; [6]): 2.58 ± 3.57 | Kp at 8 h (clinical; [6]): 1.6 ± 1.1 | Kp at 1.5 h (clinical; [7]): 0.45 ± 0.123 | Kp at 3.25 h (clinical; [7]): 0.508 ± 0.096 | Kp at 4 h (clinical; [7]): 0.57 ± 0.159 | Kp at 6 h (clinical; [7]): 0.705 ± 0.329 | Kp at 8 h (clinical; [7]): 1.01 ± 0.391 | Kp (clinical; intrapulmonary penetration based on AUC0-8 of ELF and total plasma concentrations): ~0.53 | Kp (clinical; intrapulmonary penetration, unbound plasma concentrations): 0.79 | Kp at 6 h (clinical; mean ratio of AM to plasma concentration): 2.58 ± 3.57 | Kp (clinical; mean ratios of AM to simultaneous plasma concentration (range)): 0.062 to 2.58 | Kp (clinical; mean ratios of ELF to simultaneous plasma concentrations (range)): 0.45 to 1.01 | Kp (clinical; ratio of ELF to total plasma concentrations based on mean AUC0-8): 0.53 | Kp (clinical; ratio of ELF to total plasma concentrations based on median AUC0-8): 0.48 | Kp (clinical; ratio of ELF to unbound plasma concentrations based on mean AUC0-8): 0.79 | Kp (clinical; ratio of ELF to unbound plasma concentrations based on median AUC0-8): 0.72
Structure (SMILES): O=C(O)C[C@@H]1CC[C@H](NC(=O)Cc2cccs2)B(O)O1 [Compound I]
Expected Compound I free drug 24 h AUC ([1]; 500 mg q12h, 10-19 ml/min group): 505.1 µg·h/mL and 427.3 µg·h/mL and 493.6 µg·h/mL and 790.7 µg·h/mL and 830.3 µg·h/mL and 719.6 µg·h/mL | Expected Compound I free drug 24 h AUC ([1]; 500 mg q12h, 30-49 ml/min group): 119.3 µg·h/mL and 129.1 µg·h/mL and 115.2 µg·h/mL and 228.1 µg·h/mL and 251.1 µg·h/mL and 310.6 µg·h/mL | Expected Compound I free drug 24 h AUC ([1]; 500 mg q12h, >50 mL/min group): 70.0 µg·h/mL and 62.7 µg·h/mL and 69.2 µg·h/mL and 88.4 µg·h/mL and 70.7 µg·h/mL and 68.1 µg·h/mL and 108.4 µg·h/mL and 108.0 µg·h/mL | Expected Compound I free drug 24 h AUC ([1]; 500 mg q24h, 10-19 ml/min group): 252.5 µg·h/mL and 213.7 µg·h/mL and 246.8 µg·h/mL and 395.4 µg·h/mL and 415.1 µg·h/mL and 359.8 µg·h/mL | Expected Compound I free drug 24 h AUC ([1]; 500 mg q24h, 30-49 ml/min group): 59.6 µg·h/mL and 64.5 µg·h/mL and 57.6 µg·h/mL and 114.0 µg·h/mL and 125.5 µg·h/mL and 155.3 µg·h/mL | Expected Compound I free drug 24 h AUC ([1]; 500 mg q24h, >50 mL/min group): 35.0 µg·h/mL and 31.4 µg·h/mL and 34.6 µg·h/mL and 44.2 µg·h/mL and 35.4 µg·h/mL and 34.1 µg·h/mL and 54.2 µg·h/mL and 54.0 µg·h/mL | Expected Compound I free drug 24 h AUC ([1]; 1 g q8h, 10-19 ml/min group): 1515.2 µg·h/mL and 1281.9 µg·h/mL and 1480.9 µg·h/mL and 2372.2 µg·h/mL and 2490.8 µg·h/mL and 2158.8 µg·h/mL | Expected Compound I free drug 24 h AUC ([1]; 1 g q8h, 30-49 ml/min group): 357.8 µg·h/mL and 387.2 µg·h/mL and 345.5 µg·h/mL and 684.2 µg·h/mL and 753.3 µg·h/mL and 931.8 µg·h/mL | Expected Compound I free drug 24 h AUC ([1]; 1 g q8h, >50 mL/min group): 210.0 µg·h/mL and 188.2 µg·h/mL and 207.5 µg·h/mL and 265.2 µg·h/mL and 212.1 µg·h/mL and 204.3 µg·h/mL and 325.3 µg·h/mL and 324.0 µg·h/mL | Expected Compound I free drug 24 h AUC ([1]; 1 g q24h, 10-19 ml/min group): 505.1 µg·h/mL and 427.3 µg·h/mL and 493.6 µg·h/mL and 790.7 µg·h/mL and 830.3 µg·h/mL and 719.6 µg·h/mL | Expected Compound I free drug 24 h AUC ([1]; 1 g q24h, 30-49 ml/min group): 119.3 µg·h/mL and 129.1 µg·h/mL and 115.2 µg·h/mL and 228.1 µg·h/mL and 251.1 µg·h/mL and 310.6 µg·h/mL | Expected Compound I free drug 24 h AUC ([1]; 1 g q24h, >50 mL/min group): 70.0 µg·h/mL and 62.7 µg·h/mL and 69.2 µg·h/mL and 88.4 µg·h/mL and 70.7 µg·h/mL and 68.1 µg·h/mL and 108.4 µg·h/mL and 108.0 µg·h/mL | Expected Compound I free drug 24 h AUC ([1]; 2 g q8h, 10-19 ml/min group): 3030.3 µg·h/mL and 2563.8 µg·h/mL and 2961.8 µg·h/mL and 4744.3 µg·h/mL and 4981.6 µg·h/mL and 4317.6 µg·h/mL | Expected Compound I free drug 24 h AUC ([1]; 2 g q8h, 30-49 ml/min group): 715.7 µg·h/mL and 774.5 µg·h/mL and 690.9 µg·h/mL and 1368.4 µg·h/mL and 1506.5 µg·h/mL and 1863.5 µg·h/mL | Expected Compound I free drug 24 h AUC ([1]; 2 g q8h, >50 mL/min group): 420.0 µg·h/mL and 376.3 µg·h/mL and 415.0 µg·h/mL and 530.5 µg·h/mL and 424.2 µg·h/mL and 408.7 µg·h/mL and 650.6 µg·h/mL and 648.1 µg·h/mL
